Measurements published in US9351978B2, “Neurogenesis screening method and uses thereof” (Mead Johnson Nutrition Company, priority 2012, dated 2016).

Experiments:
hADSCs = test: neurogenesis of hADSCs, neuronal morphology under phase contrast microscopy; assay type: cell-based, human
Procedure: hADSCs were purchased from Invitrogen, also known as Life Technologies, of Carlsbad, Calif., U.S.A., and were cultured as near confluent monolayers in 100 mm culture plates within a maintenance media consisting of Complete MesenPro RS medium with growth supplement and L-glutamine obtained from Invitrogen®. The process of culturing, passage, and seeding the hADSCs is described below.
The subculture of hADSCs was performed when cell culture reached confluence. To passage hADSCs, the following procedure is used: i) aspirate the Complete MesenPRO RS medium from the cells; ii) rinse the surface area of the cell layer with Dulbecco's phosphate buffered saline (DBPS) buffer by adding the DPBS to the side of the vessel opposite the attached cell layer and rocking the vessel back and forth several times; iii) remove the DPBS by aspiration and discard; iv) detach the cells by adding a sufficient volume of pre-warmed trypsin-EDTA solution without phenol red to cover the cell layer; v) incubate at 37° C. for approximately 7 minutes; vi) observe the cells under a microscope to determine if additional incubation is needed; vii) add 3 mL of the maintenance media to the plate, mix the cell suspension, add the suspension to a 15 mL centrifuge tube and centrifuge at 210 g for 5 minutes; viii) determine the total number of cells and percent viability using a hemacytometer; ix) add Complete MesenPRO RS medium to each vessel so that the final culture volume is 0.2 mL-0.5 mL per cm^2; x) seed the cells by adding the appropriate volume of cells to each vessel and incubate at 37° C., 5% CO2 and 90% humidity; and xi) three or four days after seeding, completely remove the medium and replace with an equal volume of Complete MesenPRO RS medium.
Before seeding the passaged hADSCs on fresh culture plates, the surfaces of the culture ware are washed with sterile DPBS solution three times, followed by multiple rinses with sterile water. The first layer of coating is poly-L-ornithine. […]

hNSCs = test: neurogenesis of hNSCs, morphological changes under inverted fluorescent microscopy; assay type: cell-based, human; settings: 72 hours
Procedure: Briefly, hNSCs were purchased from Millipore, Bellerica, Mass., U.S.A., with genetic modification to constitutively express green fluorescent protein (“GFP”). The hNSCs were cultured on laminin coated plates as recommended by the manufacturer. Both laminin and DEME/F12 were obtained from Millipore. Laminin was diluted with DMEM/F12 to 20 μg/mL. 10 ml of diluted laminin solution was added to 10 cm tissue culture dish. Then the culture dish was incubated in a 37° C., 5% CO2 incubator overnight. Just before use, the laminin solution was aspirated and rinsed once with sterile DPBS solution. hNSCs were cultured in the ReNcell NSC maintenance medium (Millipore) supplied with 20 ng/mL bFGF and 20 ng/mL EGF in a 37° C., 5% CO2 incubator. Medium was exchanged with fresh medium containing bFGF and EGF every other day thereafter. The cells reached 80% confluence 2 to 3 days after this step.
After hNSCs reach 80% confluence, hNSCs were ready for the differentiation experiment. Before seeding, a 96-well plate was freshly coated with 20 μg/mL laminin solution followed by a brief DPBS rinse as described above. Culture medium was removed carefully and hNSCs were dissociated within 3 ml Accutase (Millipore) in a 37° C., 5% CO2 incubator for 3 minutes. Then 5 ml of ReNcell NSC maintenance medium (Millipore) supplied with 20 ng/mL bFGF and 20 ng/mL EGF were added. The cell suspension was then transferred a sterile 15 ml conical tube and the cells were pelleted by the centrifugation at 300×g for 5 minutes. Supernatant was removed. 2 ml medium was then applied to the tube and hNSCs was resuspended thoroughly. The hNSCs were seeded on a 96-well plate at a density of 1×10^4 cell/ml (1000 cells/well, 100 μl/well).
After attaching to the culture surface, the culture medium was switched to serum-free differentiation medium in the presence of cholesterol, or DHA, or no treatment. […]

`CC(C)CCC[C@@H](C)[C@H]1CC[C@H]2[C@@H]3CC=C4C[C@@H](O)CC[C@]4(C)[C@H]3CC[C@]12C` [cholesterol] was tested, and the “effect to enhance neurogenesis (neuronal morphology displayed by the hADSCs)” value (hADSCs; 5 μM, among the concentrations tested, phase contrast microscopy at 24, 48 and 96 hours, FIG. 2B) was “strongest effect to enhance neurogenesis”, the “neurogenesis compared to the negative control” value (hADSCs; addition of cholesterol vs no treatment) was “promoted neurogenesis when compared to the negative control” and the “morphology of treated hADSCs (outgrowth)” value (hADSCs; hADSCs treated with cholesterol, FIG. 2B) was “long outgrowth with some branching”. For the same compound, the “morphology of hNSCs observed” value (hNSCs; 25 μM) was “shrinking cellular bodies, projecting neurities and were developing dendrites”, the “neurogenesis of hNSCs compared to no treatment” value (hNSCs; 25 μM, serum-free differentiation medium) was “dramatically promoted neurogenesis” and the “length of neurite outgrowth” value (hNSCs; cholesterol 25 μM compared with DHA at 20 μM) was “comparable to DHA”.
